Laboratory results reported in patent publication US10040781B2, “Tank-binding kinase inhibitor compounds” (Gilead Sciences, Inc., priority 2014, dated 2018).

target: TBK1 (Homo sapiens (Human), UniProt Q9UHD2); assay: TBK1 TR-FRET enzymatic assay; conditions: not given;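 note: phosphorylation of a biotinylated Ser/Thr peptide by purified full-length recombinant TBK1, read by TR-FRET after 240 min at 25 °C, IC50 is the geometric mean of at least four runs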
Sequence (Q9UHD2 whole entry): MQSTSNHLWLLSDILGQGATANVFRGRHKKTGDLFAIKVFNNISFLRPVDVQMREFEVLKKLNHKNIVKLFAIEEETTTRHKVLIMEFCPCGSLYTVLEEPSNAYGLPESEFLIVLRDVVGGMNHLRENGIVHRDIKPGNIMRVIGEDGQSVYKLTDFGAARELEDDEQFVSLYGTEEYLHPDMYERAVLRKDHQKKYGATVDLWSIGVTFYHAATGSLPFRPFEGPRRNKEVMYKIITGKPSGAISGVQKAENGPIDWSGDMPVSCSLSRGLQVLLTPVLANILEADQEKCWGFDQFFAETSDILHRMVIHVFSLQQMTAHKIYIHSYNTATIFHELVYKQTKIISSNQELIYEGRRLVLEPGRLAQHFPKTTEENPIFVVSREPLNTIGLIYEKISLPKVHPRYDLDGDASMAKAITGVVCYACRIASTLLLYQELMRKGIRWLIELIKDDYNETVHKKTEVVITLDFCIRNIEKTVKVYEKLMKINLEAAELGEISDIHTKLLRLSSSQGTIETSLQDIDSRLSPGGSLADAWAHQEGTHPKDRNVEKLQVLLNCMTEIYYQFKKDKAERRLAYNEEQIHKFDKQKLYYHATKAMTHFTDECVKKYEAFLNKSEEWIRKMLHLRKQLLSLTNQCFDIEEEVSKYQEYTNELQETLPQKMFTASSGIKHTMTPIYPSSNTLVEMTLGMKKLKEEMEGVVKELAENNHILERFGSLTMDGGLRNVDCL

| IC50 [nM] | Structure (SMILES) |
| --- | --- |
| 145 | C[C@@H](O)C(=O)N1CC[C@@H](Oc2ccc(-c3ncnc(Nc4ccc(N5CCN(C6COC6)CC5)cc4)n3)cc2C#N)C1 [Example 91, 2-(((R)-1-((R)-2-hydroxypropanoyl)pyrrolidin-3-yl)oxy)-5-(4-((4-(4-(oxetan-3-yl)piperazin-1-yl)phenyl)amino)-1,3,5-triazin-2-yl)benzonitrile] |
| 6 | N#Cc1cc(-c2ncnc(Nc3ccc(C4CCNCC4)cc3)n2)ccc1O[C@H]1CCCC[C@H]1F (racemic) [Example 292, rac-2-(((1S,2R)-2-fluorocyclohexyl)oxy)-5-(4-((4-(piperidin-4-yl)phenyl)amino)-1,3,5-triazin-2-yl)benzonitrile] |
| 3 | C[C@H](O)C(=O)N1CC[C@H](Oc2ccc(-c3ncnc(Nc4ccc(C5CCN(C6COC6)CC5)cc4)n3)cc2C#N)[C@H](F)C1 [Example 311, 2-(((3R,4S)-3-fluoro-1-((S)-2-hydroxypropanoyl)piperidin-4-yl)oxy)-5-(4-((4-(1-(oxetan-3-yl)piperidin-4-yl)phenyl)amino)-1,3,5-triazin-2-yl)benzonitrile] |
| 14 | N#Cc1cc(-c2ncnc(Nc3ccc(N4CCN(C5COC5)CC4)cc3)n2)ccc1O[C@@H]1CN(C(=O)CO)C[C@@H]1F [Example 101, 2-(((3R,4S)-4-fluoro-1-(2-hydroxyacetyl)pyrrolidin-3-yl)oxy)-5-(4-((4-(4-(oxetan-3-yl)piperazin-1-yl)phenyl)amino)-1,3,5-triazin-2-yl)benzonitrile] |
| 26 | C[C@H](O)C(=O)N1CC[C@@H](Oc2ccc(-c3ncnc(Nc4ccc(N5CCN(C6COC6)CC5)cc4)n3)cc2C#N)C1 [Example 88, 2-(((R)-1-((S)-2-hydroxypropanoyl)pyrrolidin-3-yl)oxy)-5-(4-((4-(4-(oxetan-3-yl)piperazin-1-yl)phenyl)amino)-1,3,5-triazin-2-yl)benzonitrile] |
| 115 | N#Cc1cc(-c2ncnc(Nc3ccc4c(c3)OC(F)(F)O4)n2)ccc1OC1CCOCC1 [Example 275, 5-(4-((2,2-difluorobenzo[d][1,3]dioxol-5-yl)amino)-1,3,5-triazin-2-yl)-2-((tetrahydro-2H-pyran-4-yl)oxy)benzonitrile] |

| Structure (SMILES) | IC50 [nM] |
| --- | --- |
| N#Cc1cc(-c2ncnc(Nc3ccc(N4CCN(C5CCOCC5)CC4)cc3)n2)ccc1O[C@H]1CCN(C(=O)CO)C[C@H]1F [Example 306, 2-(((3R,4S)-3-fluoro-1-(2-hydroxyacetyl)piperidin-4-yl)oxy)-5-(4-((4-(4-(tetrahydro-2H-pyran-4-yl)piperazin-1-yl)phenyl)amino)-1,3,5-triazin-2-yl)benzonitrile] | 2 |

target: hJAK2 (Homo sapiens (Human), UniProt O60674); assay: hJAK2 LANCE TR-FRET enzymatic assay; assay type: biochemical; conditions: read-out: JAK2 IC50
Sequence (O60674 whole entry): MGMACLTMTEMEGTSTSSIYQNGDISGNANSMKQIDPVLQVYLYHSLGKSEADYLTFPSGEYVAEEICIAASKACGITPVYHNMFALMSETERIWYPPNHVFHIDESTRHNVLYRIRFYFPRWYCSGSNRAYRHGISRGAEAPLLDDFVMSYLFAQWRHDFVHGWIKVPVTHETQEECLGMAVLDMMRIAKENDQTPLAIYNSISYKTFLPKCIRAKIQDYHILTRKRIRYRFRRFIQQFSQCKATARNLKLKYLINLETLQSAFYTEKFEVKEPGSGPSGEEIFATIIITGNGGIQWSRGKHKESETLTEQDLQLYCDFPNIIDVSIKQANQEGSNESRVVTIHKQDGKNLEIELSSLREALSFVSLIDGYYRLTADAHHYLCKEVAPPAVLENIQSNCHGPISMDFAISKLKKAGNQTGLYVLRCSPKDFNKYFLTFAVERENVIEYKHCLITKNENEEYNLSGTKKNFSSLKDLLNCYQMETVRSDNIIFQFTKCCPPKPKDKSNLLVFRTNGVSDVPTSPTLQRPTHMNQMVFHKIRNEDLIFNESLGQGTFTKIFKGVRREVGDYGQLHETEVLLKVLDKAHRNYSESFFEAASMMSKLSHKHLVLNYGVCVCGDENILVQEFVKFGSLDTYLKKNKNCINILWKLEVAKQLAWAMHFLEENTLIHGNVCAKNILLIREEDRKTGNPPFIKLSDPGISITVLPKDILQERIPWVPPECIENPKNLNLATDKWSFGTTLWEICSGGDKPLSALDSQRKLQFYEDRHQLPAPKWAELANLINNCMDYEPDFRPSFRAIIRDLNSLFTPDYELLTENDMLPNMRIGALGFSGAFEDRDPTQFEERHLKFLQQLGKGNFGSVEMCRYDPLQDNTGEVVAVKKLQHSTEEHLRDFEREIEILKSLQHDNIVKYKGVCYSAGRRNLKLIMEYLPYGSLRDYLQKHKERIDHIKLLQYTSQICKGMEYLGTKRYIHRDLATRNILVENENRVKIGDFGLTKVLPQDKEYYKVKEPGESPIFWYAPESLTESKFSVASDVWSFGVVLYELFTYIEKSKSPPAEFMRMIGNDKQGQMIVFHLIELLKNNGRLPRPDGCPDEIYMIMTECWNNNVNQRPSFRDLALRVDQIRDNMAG

| IC50 [nM] | Structure (SMILES) |
| --- | --- |
| 669 | C[C@H](O)C(=O)N1CC[C@@H](Oc2ccc(-c3ncnc(Nc4ccc(N5CCN(C6COC6)CC5)cc4)n3)cc2C#N)[C@H](F)C1 [Example 234, 2-(((3R,4R)-3-fluoro-1-((S)-2-hydroxypropanoyl)piperidin-4-yl)oxy)-5-(4-((4-(4-(oxetan-3-yl)piperazin-1-yl)phenyl)amino)-1,3,5-triazin-2-yl)benzonitrile] |
| 364 | C[C@H](O)C(=O)N1CC[C@H](Oc2ccc(-c3ncnc(Nc4ccc(N5CCN6CCOC[C@H]6C5)cc4)n3)cc2C#N)[C@H](F)C1 [Example 619, 2-(((3R,4S)-3-fluoro-1-((S)-2-hydroxypropanoyl)piperidin-4-yl)oxy)-5-(4-((4-((R)-hexahydropyrazino[2,1-c][1,4]oxazin-8(1H)-yl)phenyl)amino)-1,3,5-triazin-2-yl)benzonitrile] |
| 53 | COc1cc(Nc2ncnc(-c3ccc(OC4CCOCC4)c(C#N)c3)n2)ccc1N1CCN(C)CC1 [Example 4, 5-(4-((3-methoxy-4-(4-methylpiperazin-1-yl)phenyl)amino)-1,3,5-triazin-2-yl)-2-((tetrahydro-2H-pyran-4-yl)oxy)benzonitrile] |
| 173 | C[C@H](O)C(=O)N1CC[C@H](Oc2ccc(-c3ncnc(Nc4ccc(N5CCN(C6COC6)CC5)c(Cl)c4)n3)cc2C#N)[C@H](F)C1 [Example 378, 5-(4-((3-chloro-4-(4-(oxetan-3-yl)piperazin-1-yl)phenyl)amino)-1,3,5-triazin-2-yl)-2-(((3R,4S)-3-fluoro-1-((S)-2-hydroxypropanoyl)piperidin-4-yl)oxy)benzonitrile] |
| 858 | N#Cc1cc(-c2ncnc(Nc3ccc(N4CCN(C5COC5)CC4)cc3)n2)ccc1O[C@H]1CCN(C(=O)[C@@H]2C[C@@H](O)C(=O)N2)C[C@H]1F [Example 403, 2-(((3R,4S)-3-fluoro-1-((2S,4R)-4-hydroxy-5-oxopyrrolidine-2-carbonyl)piperidin-4-yl)oxy)-5-(4-((4-(4-(oxetan-3-yl)piperazin-1-yl)phenyl)amino)-1,3,5-triazin-2-yl)benzonitrile] |
| 212 | Cc1n[nH]c(C)c1C(=O)N1CC[C@H](Oc2ccc(-c3ncnc(Nc4ccc(N5CCN(C6COC6)CC5)cc4)n3)cc2C#N)[C@H](F)C1 [Example 135, 2-(((3R,4S)-1-(3,5-dimethyl-1H-pyrazole-4-carbonyl)-3-fluoropiperidin-4-yl)oxy)-5-(4-((4-(4-(oxetan-3-yl)piperazin-1-yl)phenyl)amino)-1,3,5-triazin-2-yl)benzonitrile] |
| 122 | N#Cc1cc(-c2ncnc(Nc3ccc(N4CCN(C5COC5)CC4)cc3)n2)ccc1OC1CCN(C(=O)CO)CC1(F)F (racemic) [Example 151, 2-((3,3-difluoro-1-(2-hydroxyacetyl)piperidin-4-yl)oxy)-5-(4-((4-(4-(oxetan-3-yl)piperazin-1-yl)phenyl)amino)-1,3,5-triazin-2-yl)benzonitrile] |
| ≥ 1000 | C[C@H](O)C(=O)N1CC[C@H](Oc2ccc(-c3ncnc(Nc4ccc([C@@H]5C(=O)N(C)CCN5C)cc4)n3)cc2C#N)[C@H](F)C1 [Example 518, 5-(4-((4-((R)-1,4-dimethyl-3-oxopiperazin-2-yl)phenyl)amino)-1,3,5-triazin-2-yl)-2-(((3R,4S)-3-fluoro-1-((S)-2-hydroxypropanoyl)piperidin-4-yl)oxy)benzonitrile] |
| ≥ 1000 | N#Cc1cc(-c2ncnc(Nc3ccc(N4CCN(C5COC5)CC4)cc3)n2)ccc1O[C@H]1CCN(C(=O)[C@@H]2C[C@H](F)C(=O)N2)C[C@H]1F [Example 406, 2-(((3R,4S)-3-fluoro-1-((2S,4S)-4-fluoro-5-oxopyrrolidine-2-carbonyl)piperidin-4-yl)oxy)-5-(4-((4-(4-(oxetan-3-yl)piperazin-1-yl)phenyl)amino)-1,3,5-triazin-2-yl)benzonitrile] |
| 133 | CC1(C)CN(C(=O)CO)CC[C@H]1Oc1ccc(-c2ncnc(Nc3ccc(N4CCN(C5COC5)CC4)cc3)n2)cc1C#N (single isomer, unassigned) [Example 176] |
| 332 | C[C@@H](O)C(=O)N1CC[C@H](Oc2ccc(-c3ncnc(Nc4ccc(N5CCN(C6COC6)CC5)cc4)n3)cc2C#N)[C@H](F)C1 [Example 464, 2-(((3R,4S)-3-fluoro-1-((R)-2-hydroxypropanoyl)piperidin-4-yl)oxy)-5-(4-((4-(4-(oxetan-3-yl)piperazin-1-yl)phenyl)amino)-1,3,5-triazin-2-yl)benzonitrile] |
| 289 | N#Cc1cc(-c2ncnc(Nc3ccc(N4CCN(C5COC5)CC4)cc3)n2)ccc1O[C@H]1CCN(C(=O)[C@@H]2CSC(=O)N2)C[C@H]1F [Example 530, 2-(((3R,4S)-3-fluoro-1-((R)-2-oxothiazolidine-4-carbonyl)piperidin-4-yl)oxy)-5-(4-((4-(4-(oxetan-3-yl)piperazin-1-yl)phenyl)amino)-1,3,5-triazin-2-yl)benzonitrile] |
| 397 | CC1(C)CN(C(=O)CO)CC[C@@H]1Oc1ccc(-c2ncnc(Nc3ccc(N4CCN(C5COC5)CC4)cc3)n2)cc1C#N (single isomer, unassigned) [Example 175] |
| 445 | C[C@H](O)C(=O)N1CC[C@H](Oc2ccc(-c3ncnc(Nc4ccc(N5CCN(C6COC6)CC5)cc4)n3)cc2C#N)[C@H](F)C1 [Example 238, 2-(((3R,4S)-3-fluoro-1-((8)-2-hydroxypropanoyl)piperidin-4-yl)oxy)-5-(4-((4-(4-(oxetan-3-yl)piperazin-1-yl)phenyl)amino)-1,3,5-triazin-2-yl)benzonitrile] |
| ≥ 1000 | COc1cc(Nc2ncnc(-c3ccc(O[C@H]4CCN(C(=O)[C@H](C)O)C[C@H]4F)c(C#N)c3)n2)cnc1N1CCN(C2COC2)CC1 [Example 514, 2-(((3R,4S)-3-fluoro-1-((S)-2-hydroxypropanoyl)piperidin-4-yl)oxy)-5-(4-((5-methoxy-6-(4-(oxetan-3-yl)piperazin-1-yl)pyridin-3-yl)amino)-1,3,5-triazin-2-yl)benzonitrile] |
| 75 | N#Cc1cc(-c2ncnc(Nc3ccc(N4CCN(C5COC5)CC4)cc3)n2)ccc1O[C@H]1CCN(C(=O)CO)CC1(F)F (single isomer, unassigned) [Example 152] |
| 26 | COc1cc(Nc2ncnc(-c3ccc(O[C@H]4CCN(C(=O)CC#N)C[C@H]4F)c(C#N)c3)n2)ccc1N1CCN(C2COC2)CC1 [Example 558, 2-(((3R,4S)-1-(2-cyanoacetyl)-3-fluoropiperidin-4-yl)oxy)-5-(4-((3-methoxy-4-(4-(oxetan-3-yl)piperazin-1-yl)phenyl)amino)-1,3,5-triazin-2-yl)benzonitrile] |
| ≥ 1000 | N#Cc1cc(-c2ncnc(Nc3ccc(N4CCN(C5COC5)CC4)cc3)n2)ccc1O[C@H]1CCN(C(=O)[C@@H]2C[C@@H](F)C(=O)N2)C[C@H]1F [Example 405, 2-(((3R,4S)-3-fluoro-1-((2S,4R)-4-fluoro-5-oxopyrrolidine-2-carbonyl)piperidin-4-yl)oxy)-5-(4-((4-(4-(oxetan-3-yl)piperazin-1-yl)phenyl)amino)-1,3,5-triazin-2-yl)benzonitrile] |

| Structure (SMILES) | IC50 [nM] |
| --- | --- |
| Cc1cc(Nc2ncnc(-c3ccc(O[C@H]4CCN(C(=O)[C@@H](O)CO)C[C@H]4F)c(C#N)c3)n2)ccc1N1CCN(C2COC2)CC1 [Example 575, 2-(((3R,4S)-1-((S)-2,3-dihydroxypropanoyl)-3-fluoropiperidin-4-yl)oxy)-5-(4-((3-methyl-4-(4-(oxetan-3-yl)piperazin-1-yl)phenyl)amino)-1,3,5-triazin-2-yl)benzonitrile] | 62 |
